Test results reported in patent publication US20120316105A1, “Polymyxin Derivates Useful As Antibacterial Agents” (priority 2011, published 2012).
Read-outs that look alike come from different tables or passages of the source. Numbered stars: 1 amine (or outer) side, 2 acyl side, 3 side chain; on linkers, the order of the positions; unused ones are H or OH. Bridge positions count the residues as written; N and C are the ends. Square brackets hold non-standard residues; d marks the D form. Peptide text beside a SMILES is read from it. * marks the point of attachment. Benzoyl(4-OPh) = O=C(c1ccc(Oc2ccccc2)cc1)*; Benzoyl(4-Ph) = O=C(c1ccc(-c2ccccc2)cc1)*; X33 = N#Cc1ccc(-c2cc(C(=O)*)ccc2Cl)cc1; X26 = O=C(c1ccnc(-c2ccc(Cl)cc2)c1)*; X38 = O=S(=O)(c1cccc(-c2ccccc2)c1)*; X20 = Cc1ccc(-c2cccc(C(=O)*)c2)cc1; X10 = COc1nc(-c2ccccc2)ccc1C(=O)*; X36 = c1ccc(-c2cccc(N*)c2)cc1; Dab = NCC[C@H](N)C(=O)O; Dap = NC[C@H](N)C(=O)O; CO = O=C([*:1])[*:2]

How the values were obtained:
[1] = system: PA-1646, polymyxin-resistant clinical isolate of Pseudomonas aeruginosa; type: cell-based
Procedure, shortened: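 Broth dilution MIC and bactericidal (MBC) testing per CLSI methods (M7-A8, M100-S20, M26-A) against polymyxin-resistant clinical P. aeruginosa isolate PA-1646. Compounds tested as trifluoroacetate salts, one as sulfate salt; values in mg/L.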

[2] = system: AB-1649, polymyxin-resistant clinical isolate of Acinetobacter baumannii; type: cell-based
Procedure, shortened: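 Broth dilution MIC per CLSI against the polymyxin-resistant A. baumannii isolate, 2-fold dilutions, overnight incubation, visual read of lowest concentration inhibiting growth. Run in duplicate, lower value reported when within 2-fold; MBC per CLSI M26-A guideline.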

[3] = system: AB-3167, clinical isolate of Acinetobacter baumannii; type: cell-based
Procedure, shortened: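 Broth dilution MIC per CLSI (M7-A8, M100-S20, M26-A for bactericidal), 2-fold dilution series, overnight incubation, visual read of lowest concentration inhibiting growth versus drug-free control. Duplicates run; lower value reported if within 2-fold, otherwise repeated. Compounds tested as trifluoroacetate salts; QC strains and reference compounds required in range.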

[4] = system: PA-1646, polymyxin-resistant clinical isolate of Pseudomonas aeruginosa; type: cell-based; remark: listed apart in the source
Procedure, shortened: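 Broth dilution MIC per CLSI with 2-fold concentration steps, read visually after overnight incubation as lowest concentration inhibiting growth; duplicates within 2-fold, lower value reported, with QC strains and reference compounds. Compounds tested as trifluoroacetate salts, polymyxin B as sulfate.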

[5] = system: Pseudomonas aeruginosa strain PA01; type: cell-based
Procedure, shortened: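 CLSI broth dilution against P. aeruginosa PA01 with two-fold concentration steps and overnight incubation; MIC is lowest concentration visibly inhibiting growth versus drug-free control, in mg/L. Compounds tested as trifluoroacetate salts, in duplicate, lower value reported if within 2-fold; control organisms and reference compounds included.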

[6] = system: AB-1649, polymyxin-resistant clinical isolate of Acinetobacter baumannii; type: cell-based; remark: listed apart in the source
Procedure, shortened: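 MIC and MBC were measured by CLSI broth dilution methods (M7-A8, M100-S20, M26-A) against a polymyxin-resistant clinical isolate and reported in mg/L. Compounds were tested as trifluoroacetate salts, with one exception tested as the sulfate.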

[7] = system: EC-1, mouse virulent strain of Escherichia coli; type: cell-based; settings: E. coli EC-1; overnight incubation, lower of duplicate values; trifluoroacetate salt (Example 1 and PMB sulfate)
Procedure, shortened: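 Broth dilution per CLSI with 2-fold concentration steps and overnight incubation. MIC is the lowest concentration visibly inhibiting growth versus drug-free control, run in duplicate with the lower value reported. Duplicates differing by >2-fold were repeated, and control strains and reference compounds had to fall within range.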

[8] = Cytotoxicity assay (LDH release), hRPTEC; type: cell-based, human; settings: human
Procedure, shortened: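 hRPTEC grown 72 h in REGM, then exposed to compounds at 100, 67, 44, 30, 20 and 13 micromolar for 24 h at 37° C, 5% CO2. LDH released into supernatant measured; TC50 (micromolar) derived. Compounds tested as trifluoroacetate salts unless otherwise noted.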

[9] = PA-1646, polymyxin-resistant clinical isolate of
[10] = AB-1649, polymyxin-resistant clinical isolate of

| Compound | PA-1646 MBC [1, 9] [mg/L] | AB-1649 MIC [2, 10] [mg/L] | AB-3167 MIC ([3]; AB-3167, clinical isolate of) [mg/L] | PA-1646 MIC [4, 9] [mg/L] | PA01 MIC ([5]; strain) [mg/L] | AB-1649 MBC [6, 10] [mg/L] | EC-1 MIC [7] [mg/L] | CC50 at 24 h [8] [µM] | PA-1646 MBC ([1]; P. aeruginosa PA-1646, tested as trifluoroacetate salt (Example 1 and PMB as sulfate salt)) [mg/L] | AB-1649 MIC ([2]; A. baumannii AB-1649, overnight incubation, lower of duplicate values, trifluoroacetate salt (Example 1 and PMB sulfate)) [mg/L] | AB-3167 MIC ([3]; A. baumannii AB-3167, overnight incubation, lower of duplicate values, trifluoroacetate salt (Example 1 and PMB sulfate)) [mg/L] | PA-1646 MIC ([4]; P. aeruginosa PA-1646, overnight incubation, lower of duplicate values, trifluoroacetate salt (Example 1 and PMB sulfate)) [mg/L] | PA01 MIC ([5]; P. aeruginosa PA01, overnight incubation, lower of duplicate values, trifluoroacetate salt (Example 1 and PMB sulfate)) [mg/L] | AB-1649 MBC ([6]; A. baumannii AB-1649, tested as trifluoroacetate salt (Example 1 and PMB as sulfate salt)) [mg/L] | CC50 at 24 h ([8]; Human Renal Proximal Tubule Epithelial cells (hRPTEC), hRPTEC, 24 hours treatment, LDH release, Toxic Concentration 50%, read-out: hRPTEC TC50) [µM] |
| --- | --- | --- | --- | --- | --- | --- | --- | --- | --- | --- | --- | --- | --- | --- | --- |
| Cc1ccc(-c2cccc(C(=O)N[C@@H](CCN)C(=O)N[C@H](C(=O)N[C@@H](CN)C(=O)N[C@H]3CCNC(=O)[C@H]([C@@H](C)O)NC(=O)[C@H](CCN)NC(=O)[C@H](CCN)NC(=O)[C@H](CC(C)C)NC(=O)[C@@H](Cc4ccccc4)NC(=O)[C@H](CCN)NC3=O)[C@@H](C)O)c2)cc1 [Example 37] (X20-[Dab]T[Dap][Dab][Dab][dF]L[Dab][Dab]T; lactam 4-C) | 4 | 4 | 1 | 2 | 2 | 4 | 0.5 | 18 | – | – | – | – | – | – | – |
| COc1nc(-c2ccccc2)ccc1C(=O)N[C@@H](CCN)C(=O)N[C@H](C(=O)N[C@@H](CN)C(=O)N[C@H]1CCNC(=O)[C@H]([C@@H](C)O)NC(=O)[C@H](CCN)NC(=O)[C@H](CCN)NC(=O)[C@H](CC(C)C)NC(=O)[C@@H](Cc2ccccc2)NC(=O)[C@H](CCN)NC1=O)[C@@H](C)O [Example 38] (X10-[Dab]T[Dap][Dab][Dab][dF]L[Dab][Dab]T; lactam 4-C) | 1 | 4 | 0.25 | 1 | 1 | 4 | 0.25 | 16 | – | – | – | – | – | – | – |
| CC(C)C[C@@H]1NC(=O)[C@@H](Cc2ccccc2)NC(=O)[C@H](CCN)NC(=O)[C@@H](NC(=O)[C@H](CN)NC(=O)[C@@H](NC(=O)[C@H](CCN)NC(=O)c2ccc(Cl)c(-c3ccc(C#N)cc3)c2)[C@@H](C)O)CCNC(=O)[C@H]([C@@H](C)O)NC(=O)[C@H](CCN)NC(=O)[C@H](CCN)NC1=O [Example 39] (X33-[Dab]T[Dap][Dab][Dab][dF]L[Dab][Dab]T; lactam 4-C) | 4 | 4 | 0.5 | 1 | 1 | 4 | 0.5 | 20 | – | – | – | – | – | – | – |
| CC(C)C[C@@H]1NC(=O)[C@@H](Cc2ccccc2)NC(=O)[C@H](CCN)NC(=O)[C@@H](NC(=O)[C@H](CN)NC(=O)[C@@H](NC(=O)[C@H](CCN)NC(=O)Nc2cccc(-c3ccccc3)c2)[C@@H](C)O)CCNC(=O)[C@H]([C@@H](C)O)NC(=O)[C@H](CCN)NC(=O)[C@H](CCN)NC1=O [Example 40] ({X36-CO}-[Dab]T[Dap][Dab][Dab][dF]L[Dab][Dab]T; lactam 4-C) | 1 | 4 | 0.25 | 1 | 0.5 | 4 | 0.25 | 15 | – | – | – | – | – | – | – |
| CC(C)C[C@@H]1NC(=O)[C@@H](Cc2ccccc2)NC(=O)[C@H](CCN)NC(=O)[C@@H](NC(=O)[C@H](CN)NC(=O)[C@@H](NC(=O)[C@H](CCN)NS(=O)(=O)c2cccc(-c3ccccc3)c2)[C@@H](C)O)CCNC(=O)[C@H]([C@@H](C)O)NC(=O)[C@H](CCN)NC(=O)[C@H](CCN)NC1=O [Example 41] (X38-[Dab]T[Dap][Dab][Dab][dF]L[Dab][Dab]T; lactam 4-C) | 4 | 64 | 1 | 2 | 0.25 | >64 | 0.25 | 42 | – | – | – | – | – | – | – |
| CC(C)C[C@@H]1NC(=O)[C@@H](Cc2ccccc2)NC(=O)[C@H](CCN)NC(=O)[C@@H](NC(=O)[C@H](CN)NC(=O)[C@@H](NC(=O)[C@H](CCN)NC(=O)c2ccc(Oc3ccccc3)cc2)[C@@H](C)O)CCNC(=O)[C@H]([C@@H](C)O)NC(=O)[C@H](CCN)NC(=O)[C@H](CCN)NC1=O [Example 42] ({Benzoyl(4-OPh)}-[Dab]T[Dap][Dab][Dab][dF]L[Dab][Dab]T; lactam 4-C) | – | – | – | – | – | – | 0.25 | – | 4 | 1 | 0.25 | 1 | 0.5 | 1 | 27 |
| CC(C)C[C@@H]1NC(=O)[C@@H](Cc2ccccc2)NC(=O)[C@H](CCN)NC(=O)[C@@H](NC(=O)[C@H](CN)NC(=O)[C@@H](NC(=O)[C@H](CCN)NC(=O)c2ccnc(-c3ccc(Cl)cc3)c2)[C@@H](C)O)CCNC(=O)[C@H]([C@@H](C)O)NC(=O)[C@H](CCN)NC(=O)[C@H](CCN)NC1=O [Example 44] (X26-[Dab]T[Dap][Dab][Dab][dF]L[Dab][Dab]T; lactam 4-C) | 1 | 1 | 0.25 | 1 | 0.5 | 1 | 0.25 | 30 | – | – | – | – | – | – | – |
| CC(C)C[C@@H]1NC(=O)[C@@H](Cc2ccccc2)NC(=O)[C@H](CCN)NC(=O)[C@@H](NC(=O)[C@H](CN)NC(=O)[C@@H](NC(=O)[C@H](CCN)NC(=O)c2ccc(-c3ccccc3)cc2)[C@@H](C)O)CCNC(=O)[C@H]([C@@H](C)O)NC(=O)[C@H](CCN)NC(=O)[C@H](CCN)NC1=O [Example 45] ({Benzoyl(4-Ph)}-[Dab]T[Dap][Dab][Dab][dF]L[Dab][Dab]T; lactam 4-C) | 1 | 1 | 0.25 | 0.5 | 0.5 | 1 | 0.25 | 28 | – | – | – | – | – | – | – |
